From patent US4983740A, “Process for 1,4-dihydropyridine compounds” (Adir et Compagnie, priority 1986, dated 1991)
pIC50: −log10 of the molar value.

Columns and labels:
[1] = test system: conscious dogs with renal hypertension; test: Study in conscious dogs with renal hypertension (oral, mean arterial pressure); type: in vivo, dog (Mongol); conditions: digestive route
Text: Study in Conscious Dogs with Renal Hypertension
Mongol dogs weighing 20 to 25 kg are used. A Silastic® catheter, inserted under anesthesia at the level of the abdominal aorta, left in position permanently, enables the arterial pressure to be determined subsequently in the conscious animal.
Arterial hypertension is induced by a second operation, under anesthesia, consisting in constricting the left renal artery with a clip, decreasing the flow rate therein by approximately 70%, the left kidney is also covered with a latex capsule in order to restrict circulatory compensations; the contralateral kidney is left in position.
The systolic, diastolic and mean arterial pressures are determined with a Statham® P23 pressure sensor attached to the Silastic® catheter and connected to a Gould® "pressure-processor". The compounds are tested in animals which became hypertensive in the conscious state at least one week after the second operation. The arterial pressure is continuously recorded up to 7 hours after the treatment and then at 24 hours.
The compounds to be tested are administered by the digestive route through gastric tubing, in the form of a solution which may be aqueous, aqueous/alcoholic and the like, depending on the solubility of the products.
The doses administered are expressed in mg base per body weight kg.

rat aorta = test: In vitro activity in rat aorta stimulated by potassium ions; type: cell-based, rat (male Wistar); conditions: 1 h; rat aorta rings, KCl 80 mM stimulation, cumulative doses at 60 minutes intervals
Experimental: Determination of the Vitro Activity in Rat Aorta Stimulated by Potassium Ions
This trial was carried out using isolated organs removed from male Wistar rats weighing 300 to 400 g, kept under a water diet 18 hours before sacrificing.
After quickly sacrificing the animal, the aorta (at the level of the arch of the aorta) is removed and dissected into 2 mm-long rings; the endothelium is removed mechanically. After an equilibration period of 1 hour in a physiological solution consisting of (mM): NaCl 112, KCl 5, KH2 PO4 1, MgSO4 1.2, CaCl2 2.5, NaHCO3 25 and glucose 11.5, the preparations are stimulated with a potassium-rich solution. The latter consists of (mM):NaCl 37, KCl 80, KH2 PO4 1, MgSO4 1.2, CaCl2 2.5, NaHCO3 25 and glucose 11.5. This solution has a pH of 7.4 at 37° C.
After 15 minutes of stabilization, the compounds to be tested are then added (sample volume 0.2 ml) at cumulative doses at 60 minutes intervals. From the relaxation values obtained, it is possible to construct a doseresponse curve, leading to the calculation of an IC50 value (expressed in M).

[2] = test system: conscious spontaneous hypertensive rats (SHR); test: Long-term studies in conscious spontaneous hypertensive rats (oral, single daily dose, systolic arterial pressure); type: in vivo, rat (SHR); conditions: 1 mg/kg/d
Experimental: Long-term Studies in Conscious Spontaneous Hypertensive rats (SHR) Male rats weighing 280 to 300 g, aged 16 weeks, are used in this study. The systolic arterial pressure is determined with a Rhema multichannel 8,000® apparatus, according to the indirect method, at the tail of the animal. The compounds to be tested are administered orally, in a single daily dose. Determinations of arterial pressure are carried out each day just before the treatment. Amlodipine was also studied under the same conditions.

[3] = test system: conscious spontaneous hypertensive rats (SHR); test: Short-term studies in conscious spontaneous hypertensive rats (oral, systolic arterial pressure); type: in vivo, rat (SHR)
Experimental: Short-term Studies in Conscious Spontaneous Hypertensive Rats (SHR)
Male spontaneous hypertensive rats weighing 270 to 320 g, aged 16 to 24 weeks, are anesthetized with ether. A polyethylene catheter is introduced into the femoral artery and moved forward to the level of the tail. The pressure in the femoral artery is recorded with a Statham® P23 sensor, on a Gould® 2400 recorder. The animals are treated at least one hour after the operation. The compounds are administered orally, in the dissolved form. The doses administered are expressed in mg/kg of base. The compounds of the invention were compared with amlodipine and with another 1,4-dihydropyridine derivative reference compound, nifedipine.

Q: Which results are given for `CCOC(=O)C1=C(COCCOCCN)NC(C)=C(C(=O)OC)C1c1c(F)c(F)c(F)c(F)c1F` (racemic) [EXAMPLE 1, (4R,S)-2-{[2-(2-Aminoethoxy)ethoxy]methyl}-3-ethoxycarbonyl-5-methoxycarbonyl-6-methyl-4-pentafluorophenyl-1,4-dihydropyridine hemifumarate]?
A: Mean arterial pressure after treatment, Δ mm Hg, 4 h ([1]; 0.5 mg/kg): -21 mm Hg; Mean arterial pressure after treatment, Δ mm Hg, 7 h ([1]; 0.5 mg/kg): -22 mm Hg; Mean arterial pressure after treatment, Δ mm Hg, 24 h ([1]; 0.5 mg/kg): -15 mm Hg; Mean arterial pressure after treatment, Δ mm Hg, 4 h ([1]; 1.0 mg/kg): -45 mm Hg; Mean arterial pressure after treatment, Δ mm Hg, 7 h ([1]; 1.0 mg/kg): -47 mm Hg; Mean arterial pressure after treatment, Δ mm Hg, 24 h ([1]; 1.0 mg/kg): -46 mm Hg; pIC50 (rat aorta): 7.60; Systolic arterial pressure Δ(mm Hg) 24 h after the last administration of the products, D1 ([2]; day 1): -52 mm Hg; Systolic arterial pressure Δ(mm Hg) 24 h after the last administration of the products, D2 ([2]; day 2): -51 mm Hg; Systolic arterial pressure Δ(mm Hg) 24 h after the last administration of the products, D3 ([2]; day 3): -49 mm Hg; Systolic arterial pressure Δ(mm Hg) 24 h after the last administration of the products, D4 ([2]; day 4): -44 mm Hg; Systolic arterial pressure Δ(mm Hg) 24 h after the last administration of the products, D7 ([2]; day 7): -46 mm Hg; Systolic arterial pressure after treatment, Δ mm Hg, 4 h ([3]; 1 mg/kg): -44 mm Hg; Systolic arterial pressure after treatment, Δ mm Hg, 6 h ([3]; 1 mg/kg): -54 mm Hg; Systolic arterial pressure after treatment, Δ mm Hg, 24 h ([3]; 1 mg/kg): -47 mm Hg; Systolic arterial pressure after treatment, Δ mm Hg, 4 h ([3]; 3 mg/kg): -79 mm Hg; Systolic arterial pressure after treatment, Δ mm Hg, 6 h ([3]; 3 mg/kg): -78 mm Hg; Systolic arterial pressure after treatment, Δ mm Hg, 24 h ([3]; 3 mg/kg): -71 mm Hg
